According to US20230123635A1, “Compositions and Methods for Detecting Molecular Targets on Chromosomal DNA” (New England Biolabs, Inc., priority 2020, published 2023):

B1: Protein G-gHNH: NEFP: Protein G-linker-gHNH nicking endonuclease (SEQ ID NO: 5) (protein)
chain: MKGETTTEAVDAATAEKVFKQYANDNGVDGEWTYDDATKTFTVTEKPEVIDASELTPAVTTYKLVINGKTLKGETTTEAVDAATAEKVFKQYANDNGVDGEWTYDDATKTFTVTEKPEVIDASELTPAVTTYKLVINGKTLKGETTTKAVDAETAEKAFKQYANDNGVDGVWTYDDATKTFTVTEGSATIVKKPLRPCCEFHCYNLTRERYCEEHRYKEKETQQDKNRYYDRFKRDKESTAFYRSKAWERLREQALMRDKGLCLHCKNNRKIKVADMVDHIIPIKVDPSLKLKLENLQSLCNPCHNRKTAEDKKKYG

How the values were obtained:
[1] = tested on: DNA-Nt.CviPII-Protein A complex; experiment: Gel-shift assay: dissociation of the DNA-Nt.CviPII-Protein A complex by heparin; assay type: binding; settings: 3.2 μM Nt.CviPII-Protein A, NEBuffer 2 without magnesium, 50 μl
Protocol: Increasing amounts of heparin disrupts complex formation. Nicking activity is prevented by the absence of magnesium ions in the buffer.
From left to right: C is a control that is DNA in the absence of a NEFP or heparin. 0 is a control in which nicking endonuclease was added to DNA in the absence of heparin. The DNA-NEFP complex (DNA-Nt.CviPII-Protein A complex) is seen as a band at the top of the lane.
To establish that the inhibitory effect of heparin, sodium salt in untethered Nt.CviPII-Protein A fusion activity was due to selective dissociation between DNA substrate and fusion enzyme, a gel-shift assay was performed. Double stranded DNA substrate containing constant amounts of Nt.CviPII binding domains (CCA, 5′[…]-F, F=fluorescein (SEQ ID NO:9)) and 3.2 μM Nt.CviPII-Protein A fusion were combined in the presence of 1×NEBuffer 2 in the absence of magnesium for 30 minutes at room temperature to enable an enzyme-substrate complex to be formed. Increasing amounts of heparin, sodium salt (0, 2.3, 4.6, 1, 20, 42, 83, 166, 330 μg/ml) was added to the total 50 μl reaction volume. It was observed that a heparin concentration of greater than 0.2 mgs/ml (at least […]) enabled complete dissociation of the DNA-Nt.CviPII-Protein A complex as observed by the appearance of bands corresponding to DNA alone in a native 6% retardation gel (Thermo Fisher Scientific, Waltham, Mass.). […]

[2] = tested on: antibody-Protein A/G complex; experiment: Effect of heparin on the antibody-Protein A/G complex (magnetic beads, SDS gel); assay type: binding; settings: 0.125, 0.25, 0.5 and 1 mg/ml Heparin, 30 minutes, room temperature, Protein A/G magnetic beads with IgG, sodium salt
From the text: The numbers on the top indicate added heparin quantity in the reaction mgs/ml.
Antibody heavy and light chains that are bound to Protein A/G can be released by boiling and resolved on an SDS gel (B). Any antibody that was free in solution having been eluted or displaced by heparin from Protein A/G could be visualized without boiling (E).
To determine the effect of heparin on the formation of the antibody-Protein A/G complex, 5 mgs of immobilized and covalently cross-linked protein A/G magnetic beads were bound to 50 μgs of IgG molecules in a 50 μl reaction volume containing 1×PBST at room temperature for 30 minutes. The complex was washed 3 times using 1 ml of 1×PBST and incubated with 0.125, 0.25, 0.5 and 1 mg/ml Heparin for 30 minutes at room temperature in 25 μl total volume. The bead-bound (B) and unbound or bead elution (E) fractions were collected, SDS sample buffer (New England Biolabs, Ipswich, Mass.) was added and the samples were incubated at 95° C. for 5 minutes. Both B and E samples were resolved on tricine 10% acrylamide gel and stained for protein.

Nt.CviPII-Protein A = experiment: Inhibition of the nicking activity of Nt.CviPII-Protein A fusion by heparin sodium salt; assay type: biochemical; settings: 2.5 units Nt.CviPII-Protein A, 0.5 μg pUC19 DNA, NEBuffer 2, 40 minutes 37° C.
Protocol: In lanes 1-9, 2.5 units of NEFP was added to 0.5 μgs of plasmid DNA in the presence of increasing amounts of heparin (0.15-10 mg/ml). Digestion was not observed when 0.3 mg heparin/ml or greater amounts are present.
To determine the effect of heparin sodium salt on the inhibition of nicking activities of Nt.CviPII-Protein A fusion, reaction tubes containing 10, 5, 2.5, 1.25, 0.62, 0.31, 0.15, and 0 mg/ml heparin, sodium salt were added to a 50 μl reaction, consisting of 5 μl 10×NEBuffer 2, 2.5 units Nt.CviPII-Protein A (as described in Example 1(B)), and 0.5 μg pUC19 DNA and incubated for 40 minutes 37° C. 10 μl of DNA loading dye mix (5×) was added to the samples and were resolved on a 10% polyacrylamide gel. The gel was stained with SYBR® Green (Molecular Probes, Eugene, Oreg.) and scanned on a Typhoon® imager (GE Healthcare Bio-Sciences, Marlborough, Mass.).

[3] = tested on: pBR322 circular double stranded DNA; experiment: Nicking activity of Protein G/A-gHNH fusion on plasmid DNA (agarose gel); assay type: biochemical; settings: 50 μl, 37° C., 1 hour; for amount of fusion enzyme giving complete nicking/digestion of DNA substrate: 1 μg pBR322, NEBuffer 2 with manganese ions (1 mM) instead of magnesium
Protocol: The nicking activity of Protein G-HNH was compared to a second non-fused nicking endonuclease (Nt.CviPII) (2 units) in the same gel to determine a generalized and consistent cleavage profile and was also compared to a control in the lane labeled 0 containing no nicking endonuclease either fused or unfused.
Protein G/A-gHNH fusion nicking activity was tested on pBR322 circular double stranded DNA using NEBuffer 2 in which magnesium ions were replaced by the same amount of manganese ions (1 mM). 1 μg of plasmid was used with 0.03 to 2 units of Protein G/A-gHNH fusion enzyme in a two-fold serial dilutions (2, 1, 0.5, 0.25, 0.125, 0.06, 0.03 units) in a total volume of 50 μl incubated at 37° C. for 1 hour. 10 μl of DNA loading dye mix (5×) was added to the nicked DNA. The nicked DNA samples were resolved on a 1% agarose gel and visualized under UV light. DNA fragment size was estimated along with 2 log DNA ladder (New England Biolabs, Ipswich, Mass.) and positive control Nt.CviPII (2 units) of the non-fused nicking endonuclease, (New England Biolabs, Ipswich, Mass.) digested pBR322 DNA (FIG. 1B). […] A representative figure supporting this conclusion is provided in FIG. 1B for Protein G-gHNH fusions.

| Molecule | heparin concentration enabling complete dissociation of the DNA-Nt.CviPII-Protein A complex (parenthesis) [1] | heparin concentration enabling complete dissociation of the DNA-Nt.CviPII-Protein A complex ([1]; native 6% retardation gel) | effect of heparin on antibody bound to Protein A/G ([2]; listed as Heparin) | effect of heparin on antibody bound to Protein A/G [2] | heparin concentration giving total inhibition of nicking (no digestion observed) (Nt.CviPII-Protein A) [mg/mL] | heparin concentration giving total inhibition of nicking (no digestion observed) (Nt.CviPII-Protein A; listed as Heparin sodium salt) [mg/mL] | amount of fusion enzyme giving complete nicking/digestion of DNA substrate [3] [units] | amount of fusion enzyme giving complete nicking/digestion of DNA substrate ([3]; listed as Protein G-gHNH fusion) | amount of fusion enzyme giving partial digestion of DNA ([3]; 1 μg pBR322, NEBuffer 2 with manganese ions) [units] |
| --- | --- | --- | --- | --- | --- | --- | --- | --- | --- |
| heparin, sodium salt | at least 10 ng/μl | greater than 0.2 mgs/ml | cannot dissociate Protein A/G-antibody reaction | no elution or displacement of antibody occurred | ≥ 0.3 | 0.15 to 0.31 |  |  |  |
| B1 |  |  |  |  |  |  | 0.25 | greater than 0.06 units | 0.03 |
